Test results reported in patent publication US20250197382A1, “KIF18A INHIBITOR” (WIGEN BIOMEDICINE TECHNOLOGY (SHANGHAI) CO., LTD., priority 2022, published 2025).

biological target: Recombinant human KIF18A (1-467His-tagged) protein (Homo sapiens (Human), UniProt Q8NI77); assay: KIF18A enzyme assay (microtubule-stimulated ATPase activity, ADP-Glo); assay type: biochemical; conditions: 30 nM KIF18A, ATP 75 μM, read-out: inhibitory activity against KIF18A IC50
In short: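 Baculovirus-expressed human KIF18A (1-467, His-tagged; 30 nM) preincubated 15 min at room temperature with compound (22-point 2-fold series) in pH 7.5 Tris buffer containing 30 μg/mL pig microtubules and 1 μM paclitaxel.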

Recombinant human KIF18A (1-467His-tagged) protein, sequence (Q8NI77 1-467): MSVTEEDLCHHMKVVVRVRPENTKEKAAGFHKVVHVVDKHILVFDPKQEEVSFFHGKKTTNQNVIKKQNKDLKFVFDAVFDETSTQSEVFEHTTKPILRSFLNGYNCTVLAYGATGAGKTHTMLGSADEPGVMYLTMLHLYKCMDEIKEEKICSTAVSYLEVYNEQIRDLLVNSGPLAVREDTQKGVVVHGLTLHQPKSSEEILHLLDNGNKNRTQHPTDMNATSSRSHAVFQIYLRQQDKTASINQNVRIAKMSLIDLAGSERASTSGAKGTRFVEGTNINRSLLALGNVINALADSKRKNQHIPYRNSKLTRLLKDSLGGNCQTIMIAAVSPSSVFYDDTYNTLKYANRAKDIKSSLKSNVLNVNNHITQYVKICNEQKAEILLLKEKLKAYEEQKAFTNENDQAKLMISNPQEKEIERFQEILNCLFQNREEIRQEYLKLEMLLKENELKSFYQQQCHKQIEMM
Recombinant human KIF18A (1-467His-tagged) protein, sequence (P02550 whole entry partner): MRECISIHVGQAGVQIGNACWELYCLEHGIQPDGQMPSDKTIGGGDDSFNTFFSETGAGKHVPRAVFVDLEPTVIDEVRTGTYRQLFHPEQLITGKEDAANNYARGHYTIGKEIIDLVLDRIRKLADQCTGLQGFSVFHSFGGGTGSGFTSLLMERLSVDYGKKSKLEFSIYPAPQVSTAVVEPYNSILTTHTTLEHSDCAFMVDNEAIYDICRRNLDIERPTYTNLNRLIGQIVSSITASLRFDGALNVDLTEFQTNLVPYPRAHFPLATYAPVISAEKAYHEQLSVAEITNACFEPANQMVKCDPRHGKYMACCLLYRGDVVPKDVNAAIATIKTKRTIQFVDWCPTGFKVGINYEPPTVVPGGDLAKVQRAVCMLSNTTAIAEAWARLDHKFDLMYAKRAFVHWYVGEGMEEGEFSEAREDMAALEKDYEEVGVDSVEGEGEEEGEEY
Recombinant human KIF18A (1-467His-tagged) protein, sequence (P02554 whole entry partner): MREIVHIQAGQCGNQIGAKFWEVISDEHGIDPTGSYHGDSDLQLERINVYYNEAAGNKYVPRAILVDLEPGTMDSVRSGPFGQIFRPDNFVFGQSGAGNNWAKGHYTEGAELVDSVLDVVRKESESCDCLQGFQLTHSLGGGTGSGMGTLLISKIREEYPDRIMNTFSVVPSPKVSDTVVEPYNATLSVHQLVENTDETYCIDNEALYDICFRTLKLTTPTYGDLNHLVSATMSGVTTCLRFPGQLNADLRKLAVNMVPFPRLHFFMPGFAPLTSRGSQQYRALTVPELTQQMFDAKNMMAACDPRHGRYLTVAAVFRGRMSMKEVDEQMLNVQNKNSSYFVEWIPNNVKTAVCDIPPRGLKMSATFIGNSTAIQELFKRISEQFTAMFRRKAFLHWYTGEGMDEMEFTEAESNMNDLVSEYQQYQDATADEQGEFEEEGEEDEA

SMILES	IC50 [µM]
C[C@@H]1CN(c2cc(C(=O)Nc3ccc(S(=O)(=O)NCCO)cc3N3CCC4(CC3)CC4)cc3ccoc23)CCO1 [Compound 178]	≤ 0.1
CC(C)(CO)Nc1cc(NC(=O)c2ccc(NS(=O)(=O)CCO)cc2N2CCC3(CC2)CC3)cc2ccoc12 [Compound 139]	≤ 0.1
C[C@@H]1CN(c2nc(C(=O)Nc3ccc(S(=O)(=O)N[C@@H](C)CO)cc3N3CCC4(CC3)CC4)cc3c2N(C)CC3)CCO1 [Compound 383]	≤ 0.1
CN1CCc2cc(NC(=O)c3ccc(S(=O)(=O)NCCO)cc3N3CCC4(CC3)CC4)cc(N3CCC4(CC4)C3)c21 [Compound 278]	≤ 0.1
Cn1ccc2cc(NC(=O)c3ccc(S(=O)(=O)NCCO)cc3N3CCC4(CC3)CC4)nc(N3CCC(F)(F)CC3)c21 [Compound 465]	≤ 0.1
O=C(Nc1ccc(NS(=O)(=O)CCO)cc1N1CCC2(CC1)CC2)c1cc2ccoc2c(N2CC(F)(F)C2)n1 [Compound 228]	≤ 0.1
C[C@@H]1CN(c2nc(NC(=O)c3ccc(NS(=O)(=O)[C@H](C)CO)cc3N3CCC4(CC3)CC4)cc3ccoc23)CCO1 [Compound 208]	≤ 0.1
C[C@@H](CO)S(=O)(=O)Nc1ccc(C(=O)Nc2cc3c(c(N4CCC(F)(F)CC4)n2)OCC3)c(N2CCC3(CC2)CC3)c1 [Compound 77]	≤ 0.1
O=C(Nc1ccc(NS(=O)(=O)CCO)cc1N1CCC2(CC1)CC2)c1cc2ccoc2c(OC2CCC2)n1 [Compound 231]	≤ 0.1
O=C(Nc1ccc(S(=O)(=O)NCCO)cc1N1CCC2(CC1)CC2)c1cc2c(c(N3CC(F)(F)C3)c1)OCC2 [Compound 52]	≤ 0.1
CN1CCc2cc(C(=O)Nc3ccc(NS(=O)(=O)CCO)cc3N3CCC4(CC3)CC4)nc(N3CCC(C)(F)C3)c21 (stereo not drawn) [Compound 360]	≤ 0.1
C[C@H]1CN(c2cc(C(=O)Nc3ccc(NS(=O)(=O)CCO)cc3N3CCC4(CC3)CC4)cc3c2N(C)CC3)CCO1 [Compound 291]	≤ 0.1
C[C@H](CO)NS(=O)(=O)c1ccc(C(=O)Nc2cc(N3CCO[C@H](C)C3)c3occc3c2)c(N2CCC3(CC2)CC3)c1 [Compound 160]	≤ 0.1
C[C@@H](CO)NS(=O)(=O)c1ccc(NC(=O)c2cc3c(c(N4CCC(F)(F)CC4)n2)N(C)CC3)c(N2CCC3(CC2)CC3)c1 [Compound 381]	≤ 0.1
C[C@@H]1CN(c2cc(C(=O)Nc3ccc(S(=O)(=O)N[C@@H](C)CO)cc3N3CCC4(CC3)CC4)cc3c2N(C)CC3)CCO1 [Compound 319]	≤ 0.1
CN1CCc2cc(C(=O)Nc3ccc(NS(=O)(=O)CCO)cc3N3CCC4(CC3)CC4)cc(N3CCOCC3)c21 [Compound 300]	≤ 0.1
C[C@H](CO)S(=O)(=O)Nc1ccc(NC(=O)c2cc3c(c(N4CCC(F)(F)CC4)c2)OCC3)c(N2CCC3(CC2)CC3)c1 [Compound 46]	≤ 0.1
C[C@@H](CO)NS(=O)(=O)c1ccc(C(=O)Nc2cc(N3CCC(F)(F)CC3)c3occc3c2)c(N2CCC3(CC2)CC3)c1 [Compound 157]	≤ 0.1
Cn1ccc2cc(NC(=O)c3ccc(S(=O)(=O)NCCO)cc3N3CCC4(CC3)CC4)cc(N3CCC(C)(F)C3)c21 (stereo not drawn) [Compound 408]	≤ 0.1
CC(C)(CO)Nc1cc(C(=O)Nc2ccc(NS(=O)(=O)CCO)cc2N2CCC3(CC2)CC3)cc2ccoc12 [Compound 171]	≤ 0.1
O=C(Nc1cc2c(c(OC3CCC3)n1)OCC2)c1ccc(S(=O)(=O)NCCO)cc1N1CCC2(CC1)CC2 [Compound 87]	≤ 0.1

SMILES	IC50 [µM]
C[C@H]1CN(c2nc(C(=O)Nc3ccc(NS(=O)(=O)CCO)cc3N3CCC4(CC3)CC4)cc3c2N(C)CC3)CCO1 [Compound 355]	≤ 0.1
Cn1ccc2cc(NC(=O)c3ccc(NS(=O)(=O)CCO)cc3N3CCC4(CC3)CC4)nc(N3CCC4(CC4)C3)c21 [Compound 454]	≤ 0.1
C[C@@H]1CN(c2nc(NC(=O)c3ccc(NS(=O)(=O)[C@H](C)CO)cc3N3CCC4(CC3)CC4)cc3c2N(C)CC3)CCO1 [Compound 336]	≤ 0.1
CC1(F)CCN(c2cc(C(=O)Nc3ccc(NS(=O)(=O)CCO)cc3N3CCC4(CC3)CC4)cc3ccoc23)C1 (stereo not drawn) [Compound 168]	≤ 0.1
C[C@@H]1CN(c2nc(C(=O)Nc3ccc(NS(=O)(=O)CCO)cc3N3CCC4(CC3)CC4)cc3ccn(C)c23)CCO1 [Compound 482]	≤ 0.1
C[C@H]1CN(c2nc(C(=O)Nc3ccc(S(=O)(=O)NCCO)cc3N3CCC4(CC3)CC4)cc3ccn(C)c23)CCO1 [Compound 499]	≤ 0.1
Cn1ccc2cc(C(=O)Nc3ccc(NS(=O)(=O)CCO)cc3N3CCC4(CC3)CC4)nc(N3CC4CC4C3)c21 (stereo not drawn) [Compound 490]	≤ 0.1
O=C(Nc1cc(N2CCOCC2)c2occc2c1)c1ccc(S(=O)(=O)NCCO)cc1N1CCC2(CC1)CC2 [Compound 156]	≤ 0.1
O=C(Nc1cc(N2CC(F)(F)C2)c2occc2c1)c1ccc(NS(=O)(=O)CCO)cc1N1CCC2(CC1)CC2 [Compound 132]	≤ 0.1
CN1CCc2cc(NC(=O)c3ccc(NS(=O)(=O)CCO)cc3N3CCC4(CC3)CC4)cc(N3CCC(F)(F)CC3)c21 [Compound 289]	≤ 0.1
O=C(Nc1cc2c(c(N3CCC4(CC4)C3)c1)OCC2)c1ccc(S(=O)(=O)NCCO)cc1N1CCC2(CC1)CC2 [Compound 22]	≤ 0.1
Cn1ccc2cc(NC(=O)c3ccc(NS(=O)(=O)CCO)cc3N3CCC4(CC3)CC4)nc(N3CCC(C)(F)C3)c21 (stereo not drawn) [Compound 456]	≤ 0.1
Cn1ccc2cc(NC(=O)c3ccc(S(=O)(=O)NCCO)cc3N3CCC4(CC3)CC4)nc(OC3CCC3)c21 [Compound 471]	≤ 0.1
C[C@H]1CN(c2nc(NC(=O)c3ccc(NS(=O)(=O)CCO)cc3N3CCC4(CC3)CC4)cc3c2N(C)CC3)CCO1 [Compound 323]	≤ 0.1
O=C(Nc1cc2c(c(N3CCC(F)(F)CC3)n1)NCC2)c1ccc(NS(=O)(=O)CCO)cc1N1CCC2(CC1)CC2 [Compound 524]	≤ 0.1
C[C@@H]1CN(c2nc(C(=O)Nc3ccc(NS(=O)(=O)CCO)cc3N3CCC4(CC3)CC4)cc3c2OCC3)CCO1 [Compound 98]	≤ 0.1
O=C(Nc1ccc(NS(=O)(=O)CCO)cc1N1CCC2(CC1)CC2)c1cc2c(c(OCCC(F)(F)F)c1)OCC2 [Compound 37]	≤ 0.1
O=C(Nc1ccc(S(=O)(=O)NCCO)cc1N1CCC2(CC1)CC2)c1cc2c(c(N3CC4CC4C3)n1)OCC2 (stereo not drawn) [Compound 122]	≤ 0.1
O=C(Nc1cc2nc[nH]c2c(N2CCC(F)(F)CC2)n1)c1ccc(NS(=O)(=O)CCO)cc1N1CCC2(CC1)CC2 [Compound 526]	≤ 0.1
Cn1ccc2cc(NC(=O)c3ccc(S(=O)(=O)NCCO)cc3N3CCC4(CC3)CC4)nc(N3CCC4(CC4)C3)c21 [Compound 470]	≤ 0.1
Cn1ccc2cc(NC(=O)c3ccc(S(=O)(=O)NCCO)cc3N3CCC4(CC3)CC4)cc(N3CCOCC3)c21 [Compound 412]	≤ 0.1

Second part, the compound after the results:

IC50 [µM]	SMILES
≤ 0.1	O=C(Nc1cc2ccoc2c(N2CC3CC3C2)n1)c1ccc(NS(=O)(=O)CCO)cc1N1CCC2(CC1)CC2 (stereo not drawn) [Compound 202]
≤ 0.1	C[C@H](CO)S(=O)(=O)Nc1ccc(C(=O)Nc2cc3c(c(N4CCC(F)(F)CC4)n2)OCC3)c(N2CCC3(CC2)CC3)c1 [Compound 78]
≤ 0.1	O=C(Nc1ccc(NS(=O)(=O)CCO)cc1N1CCC2(CC1)CC2)c1cc2c(c(N3CC(F)(F)C3)c1)OCC2 [Compound 36]
≤ 0.1	O=C(Nc1ccc(NS(=O)(=O)CCO)cc1N1CCC2(CC1)CC2)c1cc2c(c(N3CCOCC3)n1)OCC2 [Compound 108]
≤ 0.1	O=C(Nc1ccc(NS(=O)(=O)CCO)cc1N1CCC2(CC1)CC2)c1cc2ccoc2c(N2CCC(F)(F)CC2)n1 [Compound 225]
≤ 0.1	C[C@@H]1CN(c2nc(C(=O)Nc3ccc(S(=O)(=O)N[C@@H](C)CO)cc3N3CCC4(CC3)CC4)cc3ccn(C)c23)CCO1 [Compound 511]
≤ 0.1	C[C@H]1CN(c2nc(NC(=O)c3ccc(NS(=O)(=O)CCO)cc3N3CCC4(CC3)CC4)cc3ccn(C)c23)CCO1 [Compound 451]
≤ 0.1	C[C@H](CO)S(=O)(=O)Nc1ccc(C(=O)Nc2cc3c(c(N4CCC(F)(F)CC4)c2)OCC3)c(N2CCC3(CC2)CC3)c1 [Compound 14]
≤ 0.1	C[C@H](CO)S(=O)(=O)Nc1ccc(NC(=O)c2cc3ccn(C)c3c(N3CCC(F)(F)CC3)n2)c(N2CCC3(CC2)CC3)c1 [Compound 494]
≤ 0.1	O=C(Nc1cc2ccnn2c(N2CCC(F)(F)CC2)n1)c1ccc(NS(=O)(=O)CCO)cc1N1CCC2(CC1)CC2 [Compound 534]
≤ 0.1	Cn1ccc2cc(NC(=O)c3ccc(NS(=O)(=O)CCO)cc3N3CCC4(CC3)CC4)cc(N3CCOCC3)c21 [Compound 396]
≤ 0.1	O=C(Nc1cc2ccoc2c(N2CCC3(CC3)C2)n1)c1ccc(NS(=O)(=O)CCO)cc1N1CCC2(CC1)CC2 [Compound 198]
0.1 to 0.5	O=C(Nc1cc2c(c(N3CCC(F)(F)CC3)c1)CCCC2)c1ccc(NS(=O)(=O)CCO)cc1N1CCC2(CC1)CC2 [Compound 531]
≤ 0.1	O=C(Nc1ccc(NS(=O)(=O)CCO)cc1N1CCC2(CC1)CC2)c1cc(N2CCC3(CC3)C2)c2occc2c1 [Compound 166]
≤ 0.1	Cn1ccc2cc(C(=O)Nc3ccc(NS(=O)(=O)CCO)cc3N3CCC4(CC3)CC4)cc(N3CCC(F)(F)CC3)c21 [Compound 417]
≤ 0.1	Cn1ccc2cc(C(=O)Nc3ccc(NS(=O)(=O)CCO)cc3N3CCC4(CC3)CC4)nc(N3CCC4(CC4)C3)c21 [Compound 486]
≤ 0.1	CN1CCc2cc(NC(=O)c3ccc(S(=O)(=O)NCCO)cc3N3CCC4(CC3)CC4)cc(N3CCC(F)(F)CC3)c21 [Compound 273]
≤ 0.1	Cn1ccc2cc(NC(=O)c3ccc(NS(=O)(=O)CCO)cc3N3CCC4(CC3)CC4)cc(OCCC(F)(F)F)c21 [Compound 389]
≤ 0.1	CN1CCc2cc(C(=O)Nc3ccc(S(=O)(=O)NCCO)cc3N3CCC4(CC3)CC4)nc(N3CCC(F)(F)CC3)c21 [Compound 369]
≤ 0.1	CC1(F)CCN(c2cc(C(=O)Nc3ccc(S(=O)(=O)NCCO)cc3N3CCC4(CC3)CC4)cc3c2OCC3)C1 (stereo not drawn) [Compound 56]
≤ 0.1	Cn1ccc2cc(NC(=O)c3ccc(S(=O)(=O)NCCO)cc3N3CCC4(CC3)CC4)cc(N3CCC4(CC4)C3)c21 [Compound 406]
